Experimental data taken from patent US6008239A, “Triazole derivative or salt thereof” (SSP Co., Ltd., priority 1997, dated 1999).
≈ marks a conversion by molar mass, not a printed value.

Assays:
A. flavus IFM 41935 = assay: Antifungal Activity Against Aspergillus flavus (In vitro); type: cell-based; conditions: IFM41935, RPMI 1640 with 0.165M MOPS, pH 7, 35° C., 24 hours
Protocol: Test 3: Antifungal Activity Against Aspergillus flavus (In vitro)
(§1) They were incubated at 35° C. for 24 hours. After incubation, the minimum medicament concentration permitting the apparent suppression of mycerial type growth compared with that of a medicament-free control was determined as an MIC value (μg/ml).

C. albicans ATCC 44859 = assay: Antifungal Activity Against Candida albicans (In vitro); type: cell-based; conditions: ATCC44859, MEM + 10% fetal bovine serum, 37° C., 24 hours, CO2 incubator, read-out: Terminal point (minimum medicament concentration permitting apparent suppression of mycerial type growth)
Protocol: Test 1: Antifungal Activity Against Candida albicans (In vitro)
They were incubated at 37° C. for 24 hours in a CO2 gas incubator. After incubation, a morphological change of C. albicans was observed under an inverted microscope. The minimum medicament concentration permitting the apparent suppression of mycerial type growth compared with that of a medicament-free control was determined as a terminal point (ng/ml).

A. fumigatus IFM 40808 = assay: Antifungal Activity Against Aspergillus fumigatus (In vitro); type: cell-based; conditions: IFM40808, RPMI 1640 with 0.165M MOPS, pH 7, 35° C., 24 hours
Protocol: Test 2: Antifungal Activity Against Aspergillus fumigatus (In vitro)
as §1

C. albicans IFM 40009 = assay: Antifungal Activity Against Candida albicans (In vivo), survival of infected mice; design: species or system Candida albicans in male ICR (CRJ: CD-1) mice; conditions: i.v. C. albicans infection, oral 1.25 mg/kg, four times in total; for Survival days: 14 days observation, Kaplan-Meier (Cox mantel test), ***: p < 0.001, control 4.1; for Survival mice on Day 14: survivors/total on day 14, control 0/10
Protocol: Test 4: Antifungal Activity Against Candida albicans (In vivo)
After 4-week-old, male, ICR (CRJ: CD-1) mice were fasted for 6 hours, C. albicans IFM 40009 was inoculated to a tail vein of each of the mice to give an amount of 3.0×10^6 cells/mouse, whereby infection was caused. A control group consisted of 10 mice, while a medicament-administered group consisted of 5 mice. The medicament was orally administered one hour after the inoculation of the fungus and then consecutively once a day 24 hours after the inoculation, four times in total, at 1.25 mg/kg each. The survival condition during 14 days after the infection was compared. In addition, the survival days of the control group and the medicament-administered group were detected by the Kaplan-Meier method (Cox mantel test).

Compound	MIC (A. flavus IFM 41935) [µg/mL]	MIC (C. albicans ATCC 44859) [µg/mL]	MIC (A. fumigatus IFM 40808) [µg/mL]	Survival days (C. albicans IFM 40009) [days]	Survival mice on Day 14 (C. albicans IFM 40009)
COCCSC(F)(F)C(Cn1cncn1)(OC)c1ccc(F)cc1F (stereo not drawn) [Example 1, 1-{2-(2,4-difluorophenyl)-3,3-difluoro-2-methoxy-3-[(2-methoxyethyl)thio]propyl}-1H-1,2,4-triazole]	> 64	0.0625	64 (≈ 169 µM)	–	–
OC(Cn1cncn1)(Cn1cncn1)c1ccc(F)cc1F [Fluconazole, reference compound]	> 128	–	> 128	9.6	0/5
COCCS(=O)(=O)C(F)(F)C(Cn1cncn1)(OC)c1ccc(F)cc1F (stereo not drawn) [Example 7, 1-{2-(2,4-difluorophenyl)-3,3-difluoro-2-methoxy-3-[(2-methoxyethyl)sulfonyl]propyl}-1H-1,2,4-triazole]	–	–	–	14.0	5/5
COC(Cn1cncn1)(c1ccc(F)cc1F)C(F)(F)S(=O)(=O)CCO (stereo not drawn) [Example 9, 2-{[2-(2,4-Difluorophenyl)-1,1-difluoro-2-methoxy-3-(1H-1,2,4-triazol-1-yl)propyl]sulfonyl}-1-ethanol]	–	–	–	14.0	5/5
CCOC(Cn1cncn1)(c1ccc(F)cc1F)C(F)(F)S(=O)(=O)CCO (stereo not drawn) [Example 10, 2-{[2-(2,4-Difluorophenyl)-2-ethoxy-1,1-difluoro-3-(1H-1,2,4-triazol-1-yl)propyl]sulfonyl}-1-ethanol]	–	–	–	13.4	4/5
COC(Cn1cncn1)(c1ccc(F)cc1F)C(F)(F)S(=O)(=O)CCOC(C)=O (stereo not drawn) [Example 12, 2-{[2-(2,4-Difluorophenyl)-1,1-difluoro-2-methoxy-3-(1H-1,2,4-triazol-1-yl)propyl]sulfonyl}ethyl acetate]	–	–	–	14.0	4/5
